According to patent publication US7786141B2 (Vertex Pharmaceuticals Incorporated, priority 2004, dated 2010):
Where two headings read alike, the source gives them in different places.

Experiments:
M1 muscarinic receptor = target: T1, M1 muscarinic receptor (Homo sapiens, UniProt P11229); assay: Functional mobilization of intracellular calcium (FLIPR) in M1-CHO cells; format: cell-based
T1 construct: expressed in transfected cells; host or cells: CHO (M1-CHO)
T1 sequence (P11229 1-460): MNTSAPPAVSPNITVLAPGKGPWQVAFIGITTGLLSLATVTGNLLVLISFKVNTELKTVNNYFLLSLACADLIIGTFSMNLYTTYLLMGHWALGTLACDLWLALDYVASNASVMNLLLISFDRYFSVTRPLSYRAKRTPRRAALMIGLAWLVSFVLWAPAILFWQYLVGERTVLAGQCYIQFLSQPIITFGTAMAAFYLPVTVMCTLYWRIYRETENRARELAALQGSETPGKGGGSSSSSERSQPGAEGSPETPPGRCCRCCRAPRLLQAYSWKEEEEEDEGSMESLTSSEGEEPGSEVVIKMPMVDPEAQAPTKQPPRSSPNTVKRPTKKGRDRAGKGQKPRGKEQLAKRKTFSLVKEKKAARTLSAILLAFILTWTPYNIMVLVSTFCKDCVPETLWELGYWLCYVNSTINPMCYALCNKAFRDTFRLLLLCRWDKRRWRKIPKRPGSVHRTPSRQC
Summary of the method: (§1)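 FLIPR Ca2+ read, ex 488/em 540 nm, 60 s. Recombinant CHO lines (M1 or M4), dye-loaded Fluo-3 AM 60-90 min at 37° C, probenecid 1 mM, pH 7.4. Agonist: compound alone; inhibition: 15 min compound pre-incubation, then carbachol at EC80 for that subtype.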

M4 muscarinic receptor = target: T2, M4 muscarinic receptor (Homo sapiens, UniProt P08173); assay: Functional mobilization of intracellular calcium (FLIPR) in M4-CHO cells; format: cell-based
T2 construct: expressed in transfected cells; host or cells: CHO (M4-CHO)
T2 sequence (P08173 1-479): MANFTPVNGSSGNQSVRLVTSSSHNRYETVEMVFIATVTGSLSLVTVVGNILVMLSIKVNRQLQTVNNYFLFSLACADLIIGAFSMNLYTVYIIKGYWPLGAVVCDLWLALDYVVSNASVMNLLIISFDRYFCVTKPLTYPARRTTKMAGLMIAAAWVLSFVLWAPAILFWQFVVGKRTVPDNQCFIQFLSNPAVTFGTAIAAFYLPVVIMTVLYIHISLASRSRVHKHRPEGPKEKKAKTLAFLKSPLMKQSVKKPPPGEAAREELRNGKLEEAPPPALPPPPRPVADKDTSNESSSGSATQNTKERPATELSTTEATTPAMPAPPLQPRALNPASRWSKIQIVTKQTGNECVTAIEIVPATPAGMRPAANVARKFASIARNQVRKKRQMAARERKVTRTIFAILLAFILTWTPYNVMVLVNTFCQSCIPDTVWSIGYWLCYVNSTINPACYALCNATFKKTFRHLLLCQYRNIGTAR
Summary of the method: as §1

[1] = M1 receptor, calcium mobilization
[2] = M1 receptor, calcium mobilization, read-out: M1 Efficacy
[3] = M4 receptor, calcium mobilization
[4] = M4 receptor, calcium mobilization, read-out: M4 Efficacy
[5] = Table 4, 100% efficacy is the maximum response obtained with the Carbachol control
[6] = Table 4, modulating M1 receptor
[7] = Table 4, modulating M4 receptor
[8] = Table 4, M1 receptor, calcium mobilization (FLIPR)
[9] = Table 4, M4 receptor, calcium mobilization (FLIPR)

SMILES | M1 Activity (M1 muscarinic receptor; [1]) | Emax (M1 muscarinic receptor; [2]) [%] | M4 Activity (M4 muscarinic receptor; [3]) | Emax (M4 muscarinic receptor; [4]) [%] | Emax (M1 muscarinic receptor; [5]) [%] | M1 Activity (M1 muscarinic receptor; [6]) | Emax (M4 muscarinic receptor; [5]) [%] | M4 Activity (M4 muscarinic receptor; [7]) | also measured
CCCOC(=O)N1C2CCC1CC(N1CCC3(CC1)CN(C(=O)OC1CCC1)c1ccc(F)cc13)C2 (stereo not drawn) [compound 329] | xxx (activity was measured to be less than 0.1 μM) | 65 to 85 | x (activity was measured to be greater than 1.0 μM) | < 65 | – | – | – | – | –
CCCOC(=O)N1CC[C@@H](CN2CCC3(CC2)CN(C(C)=O)c2ccccc23)C1 [compound 478] | – | – | – | – | < 25 | x (activity was measured to be greater than 5.0 μM) | < 25 | x (activity was measured to be greater than 5.0 μM) | –
CN(C)C(=O)N1CC2(CCN(C[C@@H]3CCN(C(=O)OCC4CC4)C3)CC2)c2cc(F)ccc21 [compound 584] | – | – | – | – | 25 to 100 | xxx (activity was measured to be less than 2.0 μM) | 25 to 100 | xxx (activity was measured to be less than 2.0 μM) | –
O=C(N[C@H]1CC2(CCN([C@@H]3C[C@@H]4CC[C@@H]3C4)CC2)c2ccccc21)c1ccoc1 [compound 868] | – | – | – | – | < 25 | – | 25 to 100 | – | M1 Activity (M1 muscarinic receptor; [8]): x (activity was measured to be greater than 5.0 μM); M4 Activity (M4 muscarinic receptor; [9]): xxx (activity was measured to be less than 2.0 μM)
Cc1cc(C(=O)N2CC3(CCN(C4CC5CCC(C4)N5C(=O)O[C@H]4CCOC4)CC3)c3cc(F)ccc32)nn1C (stereo partly drawn) [compound 411] | – | – | – | – | – | – | – | – | EC50 (M1 muscarinic receptor; M1-CHO cells, calcium mobilization (FLIPR)): < 0.1 µM; Emax (M1 muscarinic receptor; M1-CHO cells, calcium mobilization (FLIPR), read-out: M1 Efficacy): < 65%; EC50 (M4 muscarinic receptor; M4-CHO cells, calcium mobilization (FLIPR)): 0.1 to 1 µM; Emax (M4 muscarinic receptor; M4-CHO cells, calcium mobilization (FLIPR), read-out: M4 Efficacy): < 65%
C#CCCOC(=O)N1CCC(N2CCC3(CC2)CN(CCOC)c2ccc(F)cc23)CC1 [compound 565] | – | – | – | – | 25 to 100 | xxx (activity was measured to be less than 2.0 μM) | 25 to 100 | xxx (activity was measured to be less than 2.0 μM) | –
CCOC(=O)N1C2CCC1CC(N1CCC3(CC1)CNc1ccccc13)C2 (stereo not drawn) [compound 153] | xxx (activity was measured to be less than 0.1 μM) | > 85 | xxx (activity was measured to be less than 0.1 μM) | > 85 | – | – | – | – | –
CCOC(=O)N1C2CCC1CC(N1CCC3(CC1)CN(C(C)=O)c1ccc(C)cc13)C2 (stereo not drawn) [compound 9] | xxx (activity was measured to be less than 0.1 μM) | 65 to 85 | x (activity was measured to be greater than 1.0 μM) | 65 to 85 | – | – | – | – | –
CC(=O)N1CC2(CCN(C3CCN(c4cncc(C5=CCCC5)n4)CC3)CC2)c2ccccc21 [compound 975] | – | – | – | – | < 25 | – | < 25 | – | M1 Activity (M1 muscarinic receptor; [8]): x (activity was measured to be greater than 5.0 μM); M4 Activity (M4 muscarinic receptor; [9]): x (activity was measured to be greater than 5.0 μM)
COCCOC(=O)N1CCC(N2CCC3(CC2)CN(CCOC)c2ccc(F)cc23)CC1 [compound 658] | – | – | – | – | 25 to 100 | xxx (activity was measured to be less than 2.0 μM) | 25 to 100 | xxx (activity was measured to be less than 2.0 μM) | –
O=C(O)C1CC2(CCN(CC3CCCC3)CC2)c2ccccc21 (stereo not drawn) [compound 548] | – | – | – | – | < 25 | x (activity was measured to be greater than 5.0 μM) | < 25 | x (activity was measured to be greater than 5.0 μM) | –
CCOC(=O)N1CCC(N2CCC3(CC2)CN(C(C)=O)c2c(-c4ccc(OC)cc4)cccc23)CC1 [compound 434] | – | – | – | – | 25 to 100 | x (activity was measured to be greater than 5.0 μM) | 25 to 100 | xxx (activity was measured to be less than 2.0 μM) | –
CC(=O)NC1CC2(CCN(C3CCCCC3)CC2)c2ccccc21 (stereo not drawn) [compound 2] | x (activity was measured to be greater than 1.0 μM) | < 65 | x (activity was measured to be greater than 1.0 μM) | < 65 | – | – | – | – | –
CCOC(=O)N1CC[C@@H](CN2CCC3(CC2)CN(C(C)=O)c2cccc(C)c23)C1 [compound 502] | – | – | – | – | 25 to 100 | xxx (activity was measured to be less than 2.0 μM) | 25 to 100 | xx (activity was measured to be between 2.0 μM and 5.0 μM) | –
c1ccc2c(c1)NCC21CCN(C2CCC3CCC2C3)CC1 (stereo not drawn) [compound 244] | xx (activity was measured to be between 0.1 μM and 1.0 μM) | 65 to 85 | x (activity was measured to be greater than 1.0 μM) | 65 to 85 | – | – | – | – | –
O=C(N[C@H]1CC2(CCN(CC3CCCCC3)CC2)c2ccccc21)C1CC1 [compound 955] | – | – | – | – | 25 to 100 | – | 25 to 100 | – | M1 Activity (M1 muscarinic receptor; [8]): xxx (activity was measured to be less than 2.0 μM); M4 Activity (M4 muscarinic receptor; [9]): xxx (activity was measured to be less than 2.0 μM)
Cc1ccc2c(c1)C1(CCN(C3CC4CCC3C4)CC1)CN2C(=O)C1CC1 (stereo not drawn) [compound 51] | xxx (activity was measured to be less than 0.1 μM) | 65 to 85 | xx (activity was measured to be between 0.1 μM and 1.0 μM) | 65 to 85 | – | – | – | – | –
O=C(OC1CCCC1)N1C2CCC1CC(N1CCC3(CCc4ccccc43)CC1)C2 (stereo not drawn) [compound 258] | x (activity was measured to be greater than 1.0 μM) | 65 to 85 | x (activity was measured to be greater than 1.0 μM) | < 65 | – | – | – | – | –
O=C1CCCN1[C@H]1CCC2(CCN([C@@H]3CC4CC[C@H]3C4)CC2)c2ccccc21 [compound 766] | – | – | – | – | 25 to 100 | xxx (activity was measured to be less than 2.0 μM) | 25 to 100 | xxx (activity was measured to be less than 2.0 μM) | –
CC=CCOC(=O)N1C2CCC1CC(N1CCC3(CC1)CN(C(=O)N(C)C)c1ccc(F)cc13)C2 (stereo not drawn) [compound 200] | xx (activity was measured to be between 0.1 μM and 1.0 μM) | 65 to 85 | x (activity was measured to be greater than 1.0 μM) | < 65 | – | – | – | – | –
COCCOC(=O)N1CCC(N2CCC3(CC2)CN(C(C)=O)c2ccc(C)cc23)CC1 [compound 293] | xx (activity was measured to be between 0.1 μM and 1.0 μM) | > 85 | xxx (activity was measured to be less than 0.1 μM) | > 85 | – | – | – | – | –
CCCc1ccc2c(c1)C1(CCN(C3CCN(C(=O)OCC)CC3)CC1)CN2C(C)=O [compound 74] | xxx (activity was measured to be less than 0.1 μM) | 65 to 85 | xx (activity was measured to be between 0.1 μM and 1.0 μM) | 65 to 85 | – | – | – | – | –
C#CCOC(=O)N1CC[C@@H](CN2CCC3(CC2)CN(C(=O)N(C)C)c2ccc(F)cc23)C1 [compound 775] | – | – | – | – | 25 to 100 | xxx (activity was measured to be less than 2.0 μM) | 25 to 100 | xxx (activity was measured to be less than 2.0 μM) | –
CC(C)OC(=O)N1CC[C@@H](CN2CCC3(CC2)CN(C(=O)N(C)C)c2ccc(F)cc23)C1 [compound 558] | – | – | – | – | 25 to 100 | xxx (activity was measured to be less than 2.0 μM) | 25 to 100 | xxx (activity was measured to be less than 2.0 μM) | –
